Data from patent US12433903B2 (priority 2021, dated 2025).

Legend:
[1] = system: cryopreserved hepatocytes; experiment: Hepatocyte stability and metabolite profiling, rat; type: in vitro ADME; details: rat hepatocyte samples, 20 and 120 minute
Experimental: (§1) The objective of this study was to investigate the stability of the test compound, CBG, in human, rat, dog, mouse, monkey and minipig cryopreserved hepatocytes. Follow-on metabolite profiling was performed.
(§2) CBG was incubated up to 2 hr with cryopreserved hepatocytes. Cryopreserved hepatocytes in suspension were added to test compound in supplemented media following pre-incubation to initiate the reaction and the reactions were stopped by organic solvent at the appropriate time points. The termination plates were centrifuged and sample supernatants were analysed using Cyprotex generic LC MS/MS conditions to generate intrinsic clearance values for CBG. Two control compounds for each species were included in the assay and if the values for these compounds were not within the specified limits the results were rejected and the experiment repeated.
(§3) Following the hepatocyte stability assay the samples were 59 tilized for metabolite profiling using suitable high-resolution LC-MS/MS conditions. The 40 and 60 minute human samples, 20 and 120 minute rat samples, 10 and 20 minute dog and monkey samples, 20 and 60 minute mouse samples, and 40 and 120 minute minipig samples were compared against the 0 minute control sample to establish which and how many metabolites were formed. […]
(§4) The areas and percentages reported for the parent and metabolites were calculated using the XIC data. […]

[2] = system: cryopreserved hepatocytes; experiment: Hepatocyte stability and metabolite profiling, dog; type: in vitro ADME; details: dog hepatocyte samples, 10 and 20 minute
Experimental: as §1, §2, §3, §4

[3] = target: T1, adrenoceptor alpha 2A (ADRA2A) (Homo sapiens, UniProt P08913); experiment: ADRA2A agonist assay (cAMP secondary messenger pathway, HitHunter cAMP XS+); type: cell-based
T1 construct: expressed in transfected cells
T1 sequence (P08913 1-465): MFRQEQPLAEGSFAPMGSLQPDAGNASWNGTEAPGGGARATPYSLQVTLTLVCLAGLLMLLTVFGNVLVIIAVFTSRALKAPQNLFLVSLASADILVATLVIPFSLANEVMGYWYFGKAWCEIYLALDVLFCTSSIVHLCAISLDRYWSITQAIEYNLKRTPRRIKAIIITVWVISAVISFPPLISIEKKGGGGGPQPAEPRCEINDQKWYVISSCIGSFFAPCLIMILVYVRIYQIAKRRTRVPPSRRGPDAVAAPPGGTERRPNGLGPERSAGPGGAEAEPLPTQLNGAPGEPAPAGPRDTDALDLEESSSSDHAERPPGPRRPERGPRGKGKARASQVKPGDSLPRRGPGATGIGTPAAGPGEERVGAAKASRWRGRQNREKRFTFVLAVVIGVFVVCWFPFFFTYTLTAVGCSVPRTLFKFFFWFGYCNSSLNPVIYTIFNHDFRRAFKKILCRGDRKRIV
From the text: Compounds of the present disclosure (e.g., one or more compounds of Formula (1), (II), (III), Table 1 or Table 2) may be tested for activity in receptor binding assays using methods known in the art, to evaluate agonist, antagonist, inverse agonist and other modes of activity. For example compounds of the disclosure may be tested in a adrenoceptor alpha 2A (ADRA2A) Agonist assay as follows:
Cell lines stably expressing non-tagged adrenoceptor alpha 2A (ADRA2A) that signal through cAMP were used. Agonist assays monitored by the activation of ADRA2A via Gi or Gs secondary messenger signaling in a homogenous, non-imaging assay format using a technology called Enzyme Fragment Complementation (EFC) with P-galactosidase (p-Gal) as the functional reporter.
The enzyme is split into two complementary portions: EA for Enzyme Acceptor and ED for Enzyme Donor. ED is fused to cAMP and in the assay competes with cAMP generated by cells for binding to a cAMP-specific antibody. Active P-Gal is formed by complementation of exogenous EA to any unbound ED cAMP. Active enzyme can then convert a chemiluminescent substrate, generating an output signal detectable on a standard microplate reader.
• 1. cAMP assay ADRA2A cell lines were expanded from freezer stocks according to standard procedures. • 2. Cells were seeded in a total volume of 20 μL into white walled, 384 well microplates and incubated at 37° C. for the appropriate time prior to testing • 3. cAMP modulation was determined using the DiscoverX HitHunter cAMP XS+ assay Gs Agonist Format • 1. For agonist determination, cells were incubated with sample to induce response. • 2. Media was aspirated from cells and replaced with 15 μL 2:1 HBSS/10 mM Hepes: cAMP XS+Ab reagent. • 3. Intermediate dilution of sample stocks was performed to generate 4× sample in assay buffer. • 4. 5 μL of 4× sample was added to cells and incubated at 37° C. or room temperature for 30 or 60 minutes. Vehicle concentration was 1%. Gi Agonist Format • 1. For agonist determination, cells were incubated with sample in the presence of EC80 forskolin to induce response. • 2. Media was aspirated from cells and replaced with 15 μL 2:1 HBSS/10 mM Hepes: cAMP XS+Ab reagent. • 3. Intermediate dilution of sample stocks was performed to generate 4× sample in assay buffer containing 4× EC80 forskolin. • 4. 5 μL of 4× sample was added to cells and incubated at 37° C. or room temperature for 30 or 60 minutes. Final assay vehicle concentration was 1% Signal Detection • 1. After appropriate compound incubation, assay signal was generated through incubation with 20 μL cAMP XS+ED/CL lysis cocktail for one hour followed by incubation with 20 μL cAMP XS+EA reagent for three hours at room temperature. • 2. Microplates were read following signal generation with a PerkinElmer Envision™ instrument for chemiluminescent signal detection. Data Analysis • 1. Compound activity was analyzed using CBIS data analysis suite (ChemInnovation, CA) • 2. For Gs agonist mode assays, percentage activity is calculated using the following formula: % Activity=100%×(mean RLU of test sample−mean RLU of vehicle control)/(mean RLU of MAX control−mean RLU of vehicle control). • 3. For Gi agonist mode assays, percentage activity is calculated using the following formula: % Activity=100%×(1−(mean RLU of test sample-mean RLU of MAX control)/(mean RLU of vehicle control-mean RLU of MAX control))

SMILES: CCCCCc1cc(O)c(C/C=C(\C)CCC=C(C)C)c(O)c1 [CBG, cannabigerol]
- metabolites observed (number) [1]: eight
- metabolites observed (number) [2]: three
- Curve Bottom [3]: 17.138
- Curve Top [3]: 167.56
- Hill [3]: 1.5564
- Emax ([3]; read-out: Max Response): 163%
- EC50 ([3]; read-out: RC50 (Result Type EC50)): 1.34 µM
